Experiments:
[1] = room temperature; from U.S. Pat. No. 4,082,858; cited from earlier work
[2] = rate of dissolution in H2O at 25° C.; assay type: physicochemical; details: for Rate of dissolution in H2O at 25° C.: time: time for the amount printed in the same cell (see E2); for Rate of dissolution in H2O at 25° C.: amount dissolved: within the time printed in the same cell (see E3)
[3] = moisture content (Karl Fischer analysis); assay type: physicochemical
Experimental: Karl-Fischer analysis also was performed on the stevioside compositions obtained hereinbelow to determine the water content using a Mettler Toledo DL39 Karl Fischer titrator. Approximately 11-56 mg of sample were dissolved in approximately 3.5-3.7 g of dry Hydranal-Coulmat AD. Approximately 0.9-1.0 g of the resulting solution was placed in the KF titration vessel containing Hydranal-Coulomat AD and mixed for 10 seconds to ensure dissolution. The sample was titrated by means of a generator electrode which produces iodine by electrochemical oxidation: 2 I^−→I2+2e. The experiments were repeated in triplicate to ensure reproducibility.

Row | Compound | water solubility [1] | Rate of dissolution in H2O at 25° C.: time [2] [min] | Rate of dissolution in H2O at 25° C.: amount dissolved [2] [% in] | rate of dissolution as compared to the polymorph forms of stevioside ([2]; in words) | Moisture content [3] [%]
1 | C=C1C[C@@]23CC[C@H]4[C@@](C)(CCC[C@@]4(C)C(=O)O[C@@H]4O[C@H](CO)[C@@H](O)[C@H](O)[C@H]4O)[C@@H]2CC[C@]1(O[C@@H]1O[C@H](CO)[C@@H](O)[C@H](O)[C@H]1O[C@@H]1O[C@H](CO)[C@@H](O)[C@H](O)[C@H]1O)C3 [stevioside, Stevioside] | approximately 1.25 g/L | – | – | – | –
2 | C=C1C[C@@]23CC[C@H]4[C@@](C)(CCC[C@@]4(C)C(=O)O[C@@H]4O[C@H](CO)[C@@H](O)[C@H](O)[C@H]4O)[C@@H]2CC[C@]1(O[C@@H]1O[C@H](CO)[C@@H](O)[C@H](O)[C@H]1O[C@@H]1O[C@H](CO)[C@@H](O)[C@H](O)[C@H]1O)C3 [Form 4, stevioside] | – | <1.0 | 40.0 | improved rate of dissolution | ~3
3 | C=C1C[C@@]23CC[C@H]4[C@@](C)(CCC[C@@]4(C)C(=O)O[C@@H]4O[C@H](CO)[C@@H](O)[C@H](O)[C@H]4O)[C@@H]2CC[C@]1(O[C@@H]1O[C@H](CO)[C@@H](O)[C@H](O)[C@H]1O[C@@H]1O[C@H](CO)[C@@H](O)[C@H](O)[C@H]1O)C3 [Form 2 A, stevioside] | – | 2 | <0.6 | – | <3
4 | C=C1C[C@@]23CC[C@H]4[C@@](C)(CCC[C@@]4(C)C(=O)O[C@@H]4O[C@H](CO)[C@@H](O)[C@H](O)[C@H]4O)[C@@H]2CC[C@]1(O[C@@H]1O[C@H](CO)[C@@H](O)[C@H](O)[C@H]1O[C@@H]1O[C@H](CO)[C@@H](O)[C@H](O)[C@H]1O)C3 [Form 1, stevioside] | – | 30 | <0.075 | – | >5
5 | C=C1C[C@@]23CC[C@H]4[C@@](C)(CCC[C@@]4(C)C(=O)O[C@@H]4O[C@H](CO)[C@@H](O)[C@H](O)[C@H]4O)[C@@H]2CC[C@]1(O[C@@H]1O[C@H](CO)[C@@H](O)[C@H](O)[C@H]1O[C@@H]1O[C@H](CO)[C@@H](O)[C@H](O)[C@H]1O)C3 [Form 2B, stevioside] | – | <1.0 | 10.0 | – | <4

Reference: patent publication US8030481B2, “Stevioside polymorphic and amorphous forms, methods for their formulation, and uses” (The Coca-Cola Company, priority 2007, dated 2011)
